ChEMBL document CHEMBL3875224, “Synthesis, docking, cytotoxicity, and LTA4H inhibitory activity of new gingerol derivatives as potential colorectal cancer therapy” (Bioorg Med Chem, 2017)

Legend:
[1] = biological target: T1, Leukotriene A-4 hydrolase (Homo sapiens, UniProt P09960); test: Inhibition of recombinant C-terminal His-tagged human LTA4H aminopeptidase activity expressed in Escherichia coli using L-alanine-4-nitro-anilide hydrochloride as substrate preincubated for 20 mins followed by substrate addition
T1 sequence (P09960 whole entry): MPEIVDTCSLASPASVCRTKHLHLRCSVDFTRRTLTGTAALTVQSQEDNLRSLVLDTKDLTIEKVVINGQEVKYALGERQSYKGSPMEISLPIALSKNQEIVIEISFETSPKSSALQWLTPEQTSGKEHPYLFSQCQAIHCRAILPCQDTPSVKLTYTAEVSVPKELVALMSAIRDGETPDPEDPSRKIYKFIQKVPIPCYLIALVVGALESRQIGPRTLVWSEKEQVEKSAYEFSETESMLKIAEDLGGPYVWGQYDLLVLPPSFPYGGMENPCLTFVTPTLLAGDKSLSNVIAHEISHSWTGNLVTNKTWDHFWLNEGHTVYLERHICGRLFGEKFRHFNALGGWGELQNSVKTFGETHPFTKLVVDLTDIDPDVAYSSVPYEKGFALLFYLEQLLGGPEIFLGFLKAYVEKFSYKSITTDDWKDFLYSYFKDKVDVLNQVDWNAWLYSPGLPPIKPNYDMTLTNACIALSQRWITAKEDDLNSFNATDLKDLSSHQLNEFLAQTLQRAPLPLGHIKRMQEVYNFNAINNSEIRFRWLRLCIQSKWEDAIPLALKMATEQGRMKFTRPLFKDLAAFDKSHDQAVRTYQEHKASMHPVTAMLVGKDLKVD

[2] = Cytotoxicity against human HCT116 cells assessed as reduction in cell viability after 48 hrs by WST1 assay; assay type: functional, cell-based; conditions: HCT-116, 48 h
[3] = Cytotoxicity against human TIG1 cells assessed as reduction in cell viability after 48 hrs by WST1 assay; assay type: toxicity, cell-based
[4] = Cytotoxicity against human HF19 cells assessed as reduction in cell viability after 48 hrs by WST1 assay; assay type: toxicity, cell-based
[5] = biological target: T1, Leukotriene A-4 hydrolase; test: Inhibition of recombinant C-terminal His-tagged human LTA4H epoxide hydrolase activity expressed in Escherichia coli assessed as reduction in LTB4 production using LTA4 as substrate preincubated for 20 mins followed by substrate addition measured after 30 mins by enzyme immunoassay
HCT-116 = test: Selectivity index, ratio of IC50 for human TIG1 cells to IC50 for human HCT116 cells; assay type: functional

| SMILES | IC50 [1] [µM] | IC50 [5] [µM] | IC50 [2] [µM] | IC50 at 48 h [3] [µM] | IC50 at 48 h [4] [µM] | Ratio IC50 (HCT-116) |
| --- | --- | --- | --- | --- | --- | --- |
| CCCCCC(O)CC(=O)CCc1ccc(O)c(OC)c1 (configuration not stated) | 56.1 | 58.3 | 45.1 | 75.2 | > 100 | 1.67 |
| CCCCCCCCCC(O)CC(=O)CCc1ccc(O)c(OC)c1 (configuration not stated) | 21.6 | 15.2 | 33.4 | > 100 | > 100 | 3 |
| Nc1nc(-c2ccc(Cc3ccccc3)cc2)cs1 | 7.61 | 12.4 | 30.5 | 84.3 | > 100 | 2.76 |
| CCCCCC(O)CC(=O)CCc1cc(OC)c(O)c(-c2cc(CCC(=O)CC(O)CCCCC)cc(OC)c2O)c1 (configuration not stated) | > 100 | 77.8 | > 100 | 63.1 | 54.8 | 0.63 |
| COc1ccc(CCC(C)=O)cc1OC | > 100 | > 100 | > 100 | > 100 | > 100 | – |
| CCCCC/C=C/C(=O)CCc1ccc(OC)c(OC)c1 | 4.92 | 11.3 | 1.54 | 80.6 | > 100 | 52.3 |
| CC(C)=CCCC(C)[C@H]1CC=C(C)C(O)[C@H]1O (some centres not stated) | > 100 | > 100 | > 100 | > 100 | > 100 | 1 |
| CCCCC/C=C/C(=O)CCc1ccc(OC(C)=O)c(OC)c1 | 9.31 | 29.5 | 26.9 | > 100 | > 100 | 3.72 |
| CCCCCC(O)CC(=O)CCc1ccc(OC)c(OC)c1 (configuration not stated) | > 100 | > 100 | 76.5 | 92.8 | 88.4 | 1.21 |
| CCCCCC(CC(=O)CCc1ccc(OC)c(OC)c1)OC (configuration not stated) | > 100 | > 100 | > 100 | > 100 | > 100 | – |
| CCCCC/C=C/C(=O)CCc1ccc(O)c(OC)c1 [SHOGAOL] | 12.5 | 24.6 | 12.9 | > 100 | > 100 | 7.77 |
| CC(C)C[C@H](NC(=O)[C@@H](O)[C@H](N)Cc1ccccc1)C(=O)O [UBENIMEX] | – | – | 42.5 | 77.8 | 89.5 | – |

More lines, main results first:

| IC50 [1] [µM] | IC50 [5] [µM] | SMILES | IC50 [2] [µM] | IC50 at 48 h [3] [µM] | IC50 at 48 h [4] [µM] | Ratio IC50 (HCT-116) |
| --- | --- | --- | --- | --- | --- | --- |
| > 100 | > 100 | CCCCCC(CC(=O)CCc1ccc(O)c(OC)c1)OC (configuration not stated) | > 100 | > 100 | > 100 | – |
| > 100 | > 100 | CCCC(O)CC(=O)CCc1ccc(O)c(OC)c1 (configuration not stated) | > 100 | > 100 | > 100 | – |
| > 100 | > 100 | CCCCCCCC(O)CC(=O)CCc1ccc(O)c(OC)c1 (configuration not stated) | > 100 | 55.6 | 77.6 | 0.55 |
| 45.6 | 67.1 | CCCCC/C=C/CCC(O)CC(=O)CCc1ccc(O)c(OC)c1 (configuration not stated) | 46 | > 100 | 97.5 | 2.17 |
| 3.01 | 7.25 | CCCCCC(O)CC(=O)CCc1ccc(OCC=C(C)C)c(OC)c1 (configuration not stated) | 21.5 | 83.2 | > 100 | 3.87 |
| 22.1 | 27.6 | CCCCCC(CC(=O)CCc1ccc(OC(C)=O)c(OC)c1)OC(C)=O (configuration not stated) | 30.9 | > 100 | > 100 | 3.23 |
| 56.3 | 66.4 | C=CCOc1ccc(CCC(=O)CC(O)CCCCC)cc1OC (configuration not stated) | > 100 | 64.6 | > 100 | 0.65 |
